Measured values reported in publication PMC5882934, “Acute metabolic actions of the major polyphenols in chamomile: an in vitro mechanistic study on their potential to attenuate postprandial hyperglycaemia” (Scientific Reports, 2018).
Converted amounts (≈) assume the structure as drawn. Read-outs that look alike come from different tables or passages of the source.

What was measured:
[1] = molecular target: T1, GLUT2 (Homo sapiens, UniProt P11168); assay: D-[U-14C]-glucose transport across Caco-2/TC7 monolayers under Na+-free conditions (only GLUT2 active); assay type: cell-based; conditions: for apparent increase in inhibitory activity under Na+-free conditions: versus Na+ present
T1 construct: endogenous in cells; host or cells: Caco-2/TC7
T1 sequence (P11168 1-524): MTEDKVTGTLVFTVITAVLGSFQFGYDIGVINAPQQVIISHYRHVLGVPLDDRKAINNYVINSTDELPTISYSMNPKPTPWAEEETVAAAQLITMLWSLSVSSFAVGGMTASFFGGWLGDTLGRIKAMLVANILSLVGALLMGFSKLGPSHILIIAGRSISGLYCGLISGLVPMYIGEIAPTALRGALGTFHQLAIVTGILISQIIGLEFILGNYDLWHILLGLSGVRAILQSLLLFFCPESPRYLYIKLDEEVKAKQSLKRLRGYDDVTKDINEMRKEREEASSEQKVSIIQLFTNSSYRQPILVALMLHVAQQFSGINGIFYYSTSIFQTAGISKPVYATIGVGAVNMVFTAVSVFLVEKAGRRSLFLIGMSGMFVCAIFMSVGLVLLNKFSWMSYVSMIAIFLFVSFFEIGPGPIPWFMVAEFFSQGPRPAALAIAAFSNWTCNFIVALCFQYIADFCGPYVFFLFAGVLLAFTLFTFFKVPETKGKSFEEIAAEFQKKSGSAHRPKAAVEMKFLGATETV
Description: To dissect the mechanism of inhibition of glucose transport, we conducted D-[U-^14C]-glucose transport experiments under Na^+-free conditions where only GLUT2, and not SGLT1, is active. […] When tested in combination under Na^+-free conditions, apigenin 7-O-glucoside and apigenin (Fig. 6C-3) were responsible for ~80% of the inhibitory activity observed by the whole ChE (p < 0.05) (Fig. 6C-4).
Since the main inhibition we found was on GLUT2, we investigated the binding affinities of apigenin and apigenin 7-O-glucoside. […] This was also confirmed by functional assays where the rate of D-[U-^14C]-glucose transport under Na^+-free conditions was the same from apical to basolateral compartments and vice versa (Fig. 7B). Inhibition constants for the exofacial glucose transporter inhibitor 4,6-O-ethylidene glucose and the endofacial glucose transporter inhibitor cytochalasin B on basolateral to apical D-[U-^14C]-glucose transport were compared to those for apigenin and apigenin 7-O-glucoside (Fig. 7C–E). […] This comparison is made assuming that the position of GLUT2 is the same when facing the apical and the intracellular space, which seems to hold based on the rate of D-[U-^14C]-glucose transport across the monolayers in both directions.
(§1) Caco-2/TC7 cells were cultured and transport experiments performed as fully described before.

[2] = enzymatic hydrolysis by digestive hydrolytic enzymes (hesperidinase, acetone rat intestinal extract); assay type: in vitro ADME
Protocol: Supplementary S3. Enzymatic hydrolysis of Kaempferol 3-O-glucoside (positive control) and (E)-MCAG. (A) Kaempferol 3-O-glucoside standard (300 µM). (B) Kaempferol standard (100 uM). (C) Kaempferol 3-O-glucoside hydrolysed with hesperidinase. (D) Kaempferol 3-O-glucoside hydrolysed with acetone rat intestinal extract. (E) Kaempferol 3-O-glucoside hydrolysed with pancreatin. (F) (E)-MCAG (500 µM) hydrolysed with hesperidinase. (G) (E)-MCAG (500 µM) hydrolysed hydrolysed with acetone rat intestinal extract. The enzymatic hydrolysis were conducted with 50 mg/mL of the respective enzyme for 3 h at 37 °C.

[3] = tested on: Caco-2/TC7 cells; assay: D-[U-14C]-fructose transport across Caco-2/TC7 cell monolayers; assay type: cell-based; conditions: data not shown
Description: (§2) Caco-2/TC7 cells transported 0.08 mmol of D-[U-^14C]-glucose from the apical to the basolateral compartment across the cell monolayers in the presence of Na^+, where the sugar transporter Na^+/glucose co-transporter 1 (SGLT1) is active, in addition to the facilitated transporters GLUT2 and GLUT5 (Fig. 6A-1). D-[U-^14C]-sucrose must first be hydrolysed by brush border sucrase and the resulting products, fructose and glucose, are transported into and across the cells.
as §1

[4] = tested on: Caco-2/TC7 cells; assay: D-[U-14C]-sucrose transport across Caco-2/TC7 cell monolayers; assay type: cell-based; conditions: data not shown
Description: as §2, §1

[5] = molecular target: T2, human α-amylase (Homo sapiens, UniProt P0DUB6); assay: human α-amylase inhibition assay; assay type: biochemical; conditions: for maximum inhibition of human α-amylase: individual (poly)phenol, maximum value of dose response, p < 0.05; for Ki: Dixon plot, intercept = -Ki
T2 sequence (P0DUB6 16-511): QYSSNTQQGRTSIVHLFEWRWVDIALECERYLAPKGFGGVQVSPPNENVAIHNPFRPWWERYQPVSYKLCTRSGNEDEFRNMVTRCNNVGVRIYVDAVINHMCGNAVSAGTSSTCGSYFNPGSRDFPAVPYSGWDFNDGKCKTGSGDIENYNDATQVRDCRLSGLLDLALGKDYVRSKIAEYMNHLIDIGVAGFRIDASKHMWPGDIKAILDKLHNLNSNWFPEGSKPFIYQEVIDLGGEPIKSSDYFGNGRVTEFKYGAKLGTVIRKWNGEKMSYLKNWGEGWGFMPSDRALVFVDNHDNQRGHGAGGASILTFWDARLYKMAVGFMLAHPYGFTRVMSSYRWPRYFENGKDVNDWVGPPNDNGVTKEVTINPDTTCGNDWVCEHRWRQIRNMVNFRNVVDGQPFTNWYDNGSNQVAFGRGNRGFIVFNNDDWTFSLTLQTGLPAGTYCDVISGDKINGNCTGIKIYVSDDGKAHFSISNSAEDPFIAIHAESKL
Protocol: The human α-amylase and rat α-glucosidase inhibition assays were performed under optimised conditions as previously reported[3],[18],[52]. The ChE stock solution was dissolved in DMSO while the individual (poly)phenols were prepared in a water-EtOH solution (50:50, v/v).

[6] = tested on: Caco-2/TC7 cells; assay: D-[U-14C]-glucose transport across Caco-2/TC7 cell monolayers in the presence of Na+; assay type: cell-based; conditions: for effect on D-[U-14C]-glucose transport: data not shown
Description: as §2, §1

[7] = molecular target: T2, human α-amylase; set-up: method as in doi:10.1016/j.jff.2015.10.003; conditions: strong (poly)phenol inhibitors, arbitrarily defined; cited from earlier work
[8] = set-up: method as in PMID 12086760, PMID 12876091; conditions: population with impaired glucose tolerance; cited from earlier work
[9] = tested on: rat intestinal α-glucosidase; set-up: method as in PMID 28422509; conditions: p-nitrophenyl-glucopyranoside substrate; cited from earlier work
[10] = molecular target: yeast α-glucosidase; conditions: cited from earlier work
[11] = tested on: Caco-2/TC7 cells; assay: conversion of apigenin 7-O-glucoside to apigenin by differentiated Caco-2/TC7 cells; assay type: in vitro ADME; conditions: 150 µM, 25 and 60 min
Protocol: Glycosylated (poly)phenols can be hydrolysed by luminal β-glucosidase enzymes, such as lactase phlorizin hydrolase[19],[20], present in the brush border of the enterocytes, resulting in the release of the aglycone. Therefore, we explored the possibility whether the inhibition observed by apigenin-7-O-glucoside was due to the presence of apigenin after enzymic hydrolysis. Caco-2/TC7 cells were incubated with 150 µM apigenin 7-O-glucoside for 25 and 60 min. In vitro conversion of apigenin 7-O-glucoside to apigenin in Caco2/TC7 cells was negligible (Supplementary S5) confirming that apigenin 7-O-glucoside can interact directly with GLUT2 transporter protein.
Cells were seeded at 2.4 × 10^5 cells/well on 6-well plates (Corning, Appleton Woods, UK) and cultured for 21–23 d at 37 °C as described above. Cells were exposed to 150 μM of apigenin 7-O-glucoside for 25 and 60 min. After the treatment the medium was collected and analysed by HPLC as detailed above.

[12] = tested on: GLUT1; set-up: method as in PMID 26238658; conditions: cited from earlier work
[13] = tested on: GLUT1; set-up: method as in PMID 24932809; conditions: cited from earlier work
[14] = solubility limit in enzyme assay; assay type: physicochemical
[15] = molecular target: sucrase-isomaltase; set-up: method as in PMID 18681440; conditions: cited from earlier work
[16] = molecular target: maltase-glucoamylase; set-up: method as in PMID 18681440; conditions: cited from earlier work

## CC1OC[C@H]2O[C@H](O)[C@H](O)[C@@H](O)[C@@H]2O1 (some centres unmarked) [4,6-ethylidine glucose, 4,6-O-ethylidene glucose, reference compound]
[1]; Na+-free
  fold lower inhibition of transport basolateral to apical versus apical to basolateral: 3 fold
[1]; Na+-free, apical to basolateral, read-out: a → b IC50
  IC50: 15000 µM

## COc1ccc(/C=C/C(=O)O)c(O[C@@H]2O[C@H](CO)[C@@H](O)[C@H](O)[C@H]2O)c1 [(E)-MCAG, (E)−2-β-D-Glucopyranosyloxy-4-methoxycinnamic acid]
[2]
  substrate for rat intestinal enzymes: not a substrate
[2]; 500 µM, 50 mg/mL enzyme, 3 h at 37 °C
  resistance to digestive hydrolytic enzymes: resistant
[3]
  effect on D-[U-14C]-fructose transport: no effect
[4]
  effect on D-[U-14C]-sucrose transport: no effect
[5]
  maximum inhibition of human α-amylase: ~ 20%
[6]
  effect on D-[U-14C]-glucose transport: no effect

## COc1ccc(/C=C\C(=O)O)c(OC2O[C@H](CO)[C@@H](O)[C@H](O)[C@H]2O)c1 (stereo partly drawn) [(Z)-MCAG, (Z)-2-D-Glucopyranosyloxy-4-methoxycinnamic acid]
[3]
  effect on D-[U-14C]-fructose transport: no effect
[4]
  effect on D-[U-14C]-sucrose transport: no effect
[5]
  maximum inhibition of human α-amylase: ~ 25%
[6]
  effect on D-[U-14C]-glucose transport: no effect

## C=C1[C@@H](C)[C@H]2[C@H](Cc3ccccc3)NC(=O)[C@]23OC(=O)/C=C/[C@H](O)CCC[C@@H](C)C/C=C/[C@H]3[C@@H]1O [Cytochalasin B, cytochalasin B, reference compound]
[1]; a → b IC50, Na+-free, apical to basolateral
  IC50: 2.3 µM
[1]; b → a IC50, Na+-free, basolateral to apical
  IC50: 7.6 µM

## O=C(O[C@@H]1Cc2c(O)cc(O)cc2O[C@@H]1c1cc(O)c(O)c(O)c1)c1cc(O)c(O)c(O)c1 [EGCG]
[7]
  IC50: < 100 µM

## C[C@H]1O[C@H](O[C@H]2[C@H](O)[C@@H](O)[C@@H](O[C@H]3[C@H](O)[C@@H](O)C(O)O[C@@H]3CO)O[C@@H]2CO)[C@H](O)[C@@H](O)[C@@H]1N[C@H]1C=C(CO)[C@@H](O)[C@H](O)[C@H]1O (some centres unmarked) [acarbose]
[8]
  reduction of the risk of cardiovascular events: 49%
  reduction of the risk of type 2 diabetes: 25%

## O=c1cc(-c2ccc(O)cc2)oc2cc(O[C@@H]3O[C@H](CO)[C@@H](O)[C@H](O)[C@H]3O)cc(O)c12 [apigenin 7-O-glucoside, apigenin-7-O-glucoside]
[1]; Na+-free
  fold lower inhibition of transport basolateral to apical versus apical to basolateral: 3 fold
[1]
  apparent increase in inhibitory activity under Na+-free conditions: ~ 50%
[9]
  inhibition of rat intestinal α-glucosidase activity: inhibited
[5]
  Ki: 17 ± 4 µM
[5]; in vitro results
  fold lower inhibition of human α-amylase than apigenin: ~ 10 fold
[10]
  IC50 yeast α-glucosidase: 29.7 µg/mL (≈ 68.7 µM)
[11]
  in vitro conversion to apigenin: negligible

## O=c1cc(-c2ccc(O)cc2)oc2cc(O)cc(O)c12 [apigenin]
[12]
  GLUT1 expression: lowered
[13]
  GLUT1 expression: lowered
[1]; Na+-free
  fold lower inhibition of transport basolateral to apical versus apical to basolateral: 3 fold
[1]
  apparent increase in inhibitory activity under Na+-free conditions: ~ 50%
[5]
  fold increase in inhibitory activity on human α-amylase versus apigenin 7-O-glucoside: ~ 10 fold
  Ki: 146 ± 39 µM
[14]
  solubility: limited solubility prohibited testing at concentrations >50 µM
[10]
  IC50: 22 µM
  IC50 yeast α-glucosidase: 25.5 µg/mL (≈ 94.4 µM)
[10]; p-nitrophenyl-glucopyranoside substrate
  inhibition of yeast α-glucosidase: did not inhibit
[6]; D-[U-14C]-glucose and D-[U-14C]-sucrose transport, apigenin 50 µM
  fold higher effect than apigenin 7-O-glucoside at equivalent concentrations: 3 fold

## O=c1ccc2cc(O)c(O)cc2o1 [esculetin]
[15]
  IC50: 72 µM
[16]
  IC50: 534 µM

## O=c1cc(-c2ccc(O)c(O)c2)oc2cc(O)cc(O)c12 [luteolin]
[7]
  IC50: < 100 µM

## O=c1c(O)c(-c2ccc(O)c(O)c2)oc2cc(O)cc(O)c12 [quercetin]
[15]
  IC50: 71 µM
[16]
  IC50: 216 µM
[7]
  IC50: < 100 µM
